Reference: patent US20230136878A1, “CARDIOMYOCYTE PURIFICATION METHOD” (ORIZURU THERAPEUTICS, INC., priority 2020, published 2023)

Experiments:
[1] = tested on: cells positive to any of CD326, CD31, CD49a (non-cardiomyocytes: END, EC, SMC) in cell population induced to differentiate from human iPS cells; experiment: Non-cardiomyocyte marker-positive cell rate (non-cardiomyocyte rate) measurement by flow cytometry after compound treatment of embryoid bodies
Protocol: After tapping the cell pellets, PBS containing 1% BSA was added by 1 mL, and the mixture was centrifuged at 300×g for 3 min. The supernatant was removed. The cells were stained with APCFire750-labeled anti-CD326 antibody, PE-labeled anti-CD49a antibody, BV605-labeled anti-CD31 antibody, and DAPI in PBS containing 1% BSA. DAPI-positive dead cells were removed, and the separation of cell population and the ratio of each cell population were measured by measuring the signal amount of each fluorescence dye in nuclear cells.
(§1) On day 8 of differentiation induction, the embryoid bodies were collected in one centrifugal tube, allowed to stand at room temperature for several minutes to cause sedimentation of the embryoid bodies. The supernatant was removed with an aspirator, and a medium was added to replace the medium. The embryoid body suspension was transferred to a 6-well plate, and a 1/100 amount of an evaluation compound (compounds and concentrations of Experiment Nos. 2 to 8 shown in Table 1 below) was added at a concentration of 100 times the final concentration to each well. The plate was stirred to perform cell culture.
(§2) On day 10 of differentiation induction, the 6-well plate was stood for several minutes while tilting to allow embryoid bodies to form sediments. The supernatant was removed with an aspirator, and a medium was added to replace the medium in each well. […] On day 13 of differentiation induction, the 6-well plate was tilted to allow embryoid bodies to form sediments, and the embryoid bodies were transferred to a 1.5 mL tube with a pipette provided with a chip for wide-diameter 1 mL pipette. Dissociation into single cells was performed according to the staining of non-cardiomyocytes by cell surface marker, and a single cell suspension was used for the cardiomyocyte marker-positive cell rate measurement, and non-cardiomyocyte marker-positive cell rate measurement.
Using an unfrozen single cell suspension, the staining, measurement, and analysis were performed according to the staining of non-cardiomyocytes by cell surface marker.

[2] = tested on: sarcomeric α-actinin-positive cells (cardiomyocytes) in cell population induced to differentiate from human iPS cells; experiment: Cardiac muscle marker-positive cell rate (cardiomyocyte rate) measurement by flow cytometry after compound treatment of embryoid bodies; conditions: for cardiomyocyte rate (Actinin-positive cell rate) as compared with no treatment with compound: Experimental Example 1, FIG. 4, compounds added day 8 and 10, measured day 13, AMG337 2 μM, ASP5878 0.02/0.05/0.12 μM, BGJ398 0.2/1 μM; for cardiomyocyte rate (sarcomeric α-actinin-positive cell rate) as compared with no treatment: Experimental Example 4, FIG. 8, Foretinib 0.5 μM added day 8, 10, 13
Protocol: VEGF was not added after Day 8.
as §1, §2
The above-mentioned single cell suspension was dispensed to a 1.5 mL tube, centrifuged at 400 g for 3 min, and the supernatant was removed. Cell pellets were resuspended in Cytofix/Cytoperm Fixation/Permeabilization Solution (BD), and fixed by allowing to stand at room temperature for 15 min. To each tube was added 1×Perm/Wash Buffer (1 mL), and the mixture was centrifuged at 1500 g for 3 min, and the supernatant was removed to wash the cells. After tapping the cell pellets, 1×Perm/Wash Buffer (1 mL) was added, and a similar operation was performed to wash the cells. After tapping the cell pellets, the cell pellets were stained with fluorescence dye Alexa647 using an anti-sarcomeric α-actinin antibody in 1×Perm/Wash Buffer containing 1% BSA, and DNA staining was further performed using DAPI (4′,6-Diamidino-2-phenylindole Dihydrochloride). The Sarcomeric α-actinin-positive cell rate was analyzed by measuring the fluorescence signal amount of Alexa647 in the cell population excluding dead cells (cells with DNA amount of Sub-G1) by using a flow cytometer.

[3] = tested on: cell population induced to differentiate into cardiomyocytes from human iPS cells; experiment: Recovered cell count measurement (cell counter NC-200) after compound treatment of embryoid bodies; assay type: cell-based
Protocol: The above-mentioned single cell suspension was 5-fold diluted by adding to IMDM medium prepared in a 1.5 mL tube, and mixed by inversion, and the cell count was measured with a cell counter NC-200 (Chemometec).

[4] = Experimental Example 1, FIG. 5, iPS line from PBMC LP_167, compounds added day 8 and 10, measured day 13, compound A 0.5 μM, AMG337 2 μM, ASP5878 0.02/0.05/0.12 μM, BGJ398 0.2/1 μM
[5] = iPS line from PBMC LP_167, compound A 0.5 μM
[6] = Experimental Example 7, FIG. 16, clinical iPS cell line produced by CiRA, added day 8, 10, 13, measured day 17, compound A 0.5 μM, Foretinib 2/0.5 μM, ZM323881 2 μM, CP-673451 1/0.3 μM, Crizotinib 2/0.5 μM
[7] = Experimental Example 7, FIG. 15, clinical iPS cell line produced by CiRA, added day 8, 10, 13, measured day 17, compound A 0.5 μM, Foretinib 2/0.5 μM, ZM323881 2 μM, CP-673451 1/0.3 μM, Crizotinib 2/0.5 μM
[8] = Experimental Example 3, FIG. 7, iPS line from PBMC LP_140, added day 8, 10, 13, measured day 17, compound A 0.5 μM, Foretinib 2 μM, ZM323881 2 μM, Crenolanib 1 μM, Crizotinib 2 μM
[9] = Experimental Example 5, FIG. 10, n=4, iPS line from PBMC LP_140, Crenolanib 1 μM, compound B 2 μM added day 8, 10, 13, ASP5878 0.02 μM added day 8 and 10, measured day 16
[10] = Experimental Example 9, FIG. 20, n=4, clinical iPS cell line produced by CiRA, Foretinib 0.5 μM, Crizotinib 2 μM added day 8, 10, 13, measured day 17
[11] = Experimental Example 9, FIG. 19, clinical iPS cell line produced by CiRA, Foretinib 0.5 μM, Crizotinib 2 μM added day 8, 10, 13, measured day 17
[12] = iPS line from PBMC LP_140, compound A 0.5 μM, measured day 17

Row | Compound | non-cardiomyocyte rate (rate of cells positive to any of CD326, CD31, CD49a) as compared with no treatment with compound [1, 4] | cardiomyocyte rate (Actinin-positive cell rate) as compared with no treatment with compound [2, 5] | non-cardiomyocyte rate as compared with no treatment with compound [1, 6] | cardiomyocyte rate (sarcomeric α-actinin-positive cell rate) as compared with no treatment with compound [2, 7] | non-cardiomyocyte rate (rate of cells positive to any of CD326, CD31, CD49a) as compared with no treatment with compound [1, 8] | also measured
1 | COCCOc1cnc2ccn([C@H](C)c3nnc4c(F)cc(-c5cnn(C)c5)cn34)c(=O)c2c1 [AMG337] | decreased | increased | – | – | – | –
2 | CCN1CCN(c2ccc(Nc3cc(N(C)C(=O)Nc4c(Cl)c(OC)cc(OC)c4Cl)ncn3)cc2)CC1 [BGJ398] | decreased | increased | – | – | – | –
3 | COCCOc1ccc2c(c1)ncn2-c1ccc2cccc(N3CCC(N)CC3)c2n1 [CP-673451] | – | – | decreased | increased | – | –
4 | CC1(COc2ccc3c(c2)ncn3-c2ccc3cccc(N4CCC(N)CC4)c3n2)COC1 [Crenolanib] | – | – | – | – | decreased | non-cardiomyocyte rate ([1]; Experimental Example 8, FIG. 18, clinical iPS cell line produced by CiRA, Crenolanib 0.2 or 1 μM, start of addition day 8, 10 or 13 (Table 8), measured day 23): decreased; cardiomyocyte rate (sarcomeric α-actinin-positive cell rate) as compared with no treatment with compound [2, 9]: increased; cardiomyocyte rate (sarcomeric α-actinin-positive cell rate) ([2]; Experimental Example 8, FIG. 17, clinical iPS cell line produced by CiRA, Crenolanib 0.2 or 1 μM, start of addition day 8, 10 or 13 (Table 8), measured day 23): increased
5 | C[C@@H](Oc1cc(-c2cnn(C3CCNCC3)c2)cnc1N)c1c(Cl)ccc(F)c1Cl [Crizotinib] | – | – | decreased | increased | decreased | non-cardiomyocyte rate as compared with no treatment with compound [1, 10]: decreased; cardiomyocyte rate (sarcomeric α-actinin-positive cell rate) as compared with no treatment with compound [2, 11]: increased; number of cells recovered as compared with no treatment with compound ([3]; Experimental Example 9, FIG. 21, n=4, clinical iPS cell line produced by CiRA, Crizotinib 2 μM added day 8, 10, 13, day 17): About 80%
6 | COc1cc2c(Oc3ccc(NC(=O)C4(C(=O)Nc5ccc(F)cc5)CC4)cc3F)ccnc2cc1OCCCN1CCOCC1 [Foretinib] | – | – | decreased | increased | decreased | non-cardiomyocyte rate as compared with no treatment with compound [1, 10]: decreased; cardiomyocyte rate (sarcomeric α-actinin-positive cell rate) as compared with no treatment with compound ([2]; Experimental Example 2, FIG. 6, n=4, iPS line from PBMC LP_167, Foretinib 2 μM added day 8, 10, 13, ASP5878 0.02 μM added day 8 and 10, measured day 16): increased; cardiomyocyte rate (sarcomeric α-actinin-positive cell rate) as compared with no treatment [2, 12]: increased; cardiomyocyte rate (sarcomeric α-actinin-positive cell rate) as compared with no treatment with compound [2, 11]: increased; number of cells recovered as compared with no treatment ([3]; Experimental Example 4, FIG. 9, iPS line from PBMC LP_140, Foretinib 0.5 μM added day 8, 10, 13, day 17): about 70%; number of cells recovered as compared with no treatment with compound (in words) ([3]; Experimental Example 9, FIG. 21, n=4, clinical iPS cell line produced by CiRA, Foretinib 0.5 μM added day 8, 10, 13, day 17): almost the same number of cells was recovered
7 | Cc1cc(F)c(Nc2ncnc3cc(OCc4ccccc4)ccc23)cc1O [ZM323881] | – | – | decreased | increased | decreased | –
8 | Cc1cc(C(=O)Nc2cc(Oc3ccc4nc(NC(=O)C5CC5)cn4n3)ccc2C)n(C)n1 [compound A, N-[5-({2-[(cyclopropanecarbonyl)amino]imidazo[1,2-b]pyridazin-6-yl}oxy)-2-methylphenyl]-1,3-dimethyl-1H-pyrazole-5-carboxamide] | decreased | increased | decreased | increased | decreased | non-cardiomyocyte rate as compared with no treatment with compound ([1]; Experimental Example 6, FIG. 13, n=4, clinical iPS cell line produced by CiRA, compound A 0.2 μM added day 14, 17, 21): decreased; cardiomyocyte rate (sarcomeric α-actinin-positive cell rate) as compared with no treatment [2, 12]: increased; cardiomyocyte rate as compared with no treatment with compound ([2]; Experimental Example 6, FIG. 12, n=4, clinical iPS cell line produced by CiRA, compound A 0.2 μM added day 14, 17, 21): increased; number of cells recovered as compared with no treatment (in words) ([3]; Experimental Example 4, FIG. 9, iPS line from PBMC LP_140, compound A 0.5 μM added day 8, 10, 13, day 17): almost the same number of cells was recovered; number of recovered cells depending on the presence or absence of the compound treatment ([3]; Experimental Example 6, FIG. 14, n=4, clinical iPS cell line produced by CiRA, compound A 0.2 μM added day 14, 17, 21): did not change much
9 | COc1cc2nccc(Oc3ccc(NC(=O)C4(C(=O)Nc5ccc(F)cc5)CC4)cc3F)c2cc1OC [compound B, N-{4-[(6,7-dimethoxyquinolin-4-yl)oxy]-3-fluorophenyl}-N′-(4-fluorophenyl)cyclopropane-1,1-dicarboxamide] | – | – | – | – | – | cardiomyocyte rate (sarcomeric α-actinin-positive cell rate) as compared with no treatment with compound [2, 9]: increased
